In patent publication US11059778B2, “Cannabinoid receptor CB2 ligand 4-(aminomethyl)-N, N-dialkylanilines” (UNIVERSITY OF PITTSBURGH—OF THE COMMONWEALTH SYSTEM OF …, priority 2015, dated 2021):

Experiments:
[1] = target: T1, CHO cells expressing human CB2 receptors (Homo sapiens, UniProt P34972); assay: cell-based LANCE cAMP assay; conditions: forskolin-stimulated, RO-20-1724 present, FIG. 4
T1 construct: expressed in transfected cells; host or cells: CHO cells, stably transfected
Experimental: FIG. 4 relates to cAMP Assay Results. LANCE signal of CB2 ligands. Stably transfected CHO cells expressing human CB2 receptors were utilized to carry out the LANCE cAMP assay. […] Data is mean±SEM of all experiments of two or more performed in triplicate.
(§1) The antibodies are labeled with Alexa Fluor dye that is sensitive to energy emissions. Briefly, the cell-based LANCE cAMP assays were performed on 384-well ProxiPlates using CHO cells stably expressing the CB2 receptors at density of 2×10^3 cells per well in 5 μL of RPMI-1640 medium (Gibco Laboratories, Grand Island, N.Y.) containing 1% dialyzed FBS, 25 mM HEPES, […], and 200 μg/ml of […]. After incubation overnight, 2.5 μL of cAMP antibody and RO20-1724 (a phosphodiesterase inhibitor) in stimulation buffer (DPBS 1×, containing 0.1% BSA) was added to each well, followed by the addition of 2.5 μL of the compound plus the forskolin complex (an adenyl cyclase activator). After incubation at room temperature for 45 minutes, 10 μL of detection buffer was added into each well. The plate was then incubated at room temperature for 1 hour. The plate was then measured in a Synergy H1 hybrid reader (BioTek) with excitation at 340 nm and emission at 665 nm. The results represent at least two independent experiments each in triplicates. EC50 values were determined by nonlinear regression dose-response curve (GraphPad Prism 5).
as §1, with “Cyclic AMP levels were measured by performing the cell-based LANCE cAMP-384 kit assay (PerkinElmer) as previously described 13-14. The assay is based on the competition between the europium-labeled cAMP tracer complex and sample cAMP for binding sites on cAMP-specific antibodies. The antibodies” for “The antibodies”
The LANCE cAMP assay was carried out to measure the functional activities of our synthesized CB2 selective ligands as previously described 14. Briefly, the assay was performed on 384-well plates using CHO cells stably expressing CB2 receptors in the presence of phosphodiesterase inhibitor, RO-20-1724 and adenyl cyclase activator, forskolin.

human CB2 receptors = target: T2, human CB2 receptors (Homo sapiens, UniProt P34972); assay: [3H]CP-55,940 radioligand competition binding assay, CB2; conditions: for Ki: CHO cell membranes, [3H]CP-55,940 displacement
T2 construct: expressed in transfected cells
Experimental: (§2) Binding assay. The bioassay is carried out using the Perkin Elmer 96-well Top Counter. This bioassay is also known as a competition binding assay and the biological evaluation is to determine the CB receptor binding affinity (Ki) of the screened ligands by displacing [^3H]-CP-55940 (or other radioligands). The brief procedure is given below.
(§3) Perkin Elmer 96-well TopCounter is used at PMLSC and in our laboratory to determine the CB receptor binding affinity (Ki) of the in-silico screened ligands by displacing [^3H]-CP-55,940 (or other radioligands). In competition binding experiments, the tested compound dilutions are carried out in triplicate in TME buffer (25 mM Tris, 5 mM MgCl2, 1 mM EDTA) containing 0.1% (w/v) fatty acid free bovine serum albumin (BSA), pH 7.4. Various concentrations of the tested compound are added in the same volume to 0.5 nM [^3H]CP-55,940. TME buffer and cell membrane preparations expressing CB receptors (2.5 μg per well) are added to a final volume of 200 μL. For the saturation binding experiments, varying concentrations of [^3H]CP-55,940 (0.05-1.5 nM) with or without 2 μM of unlabeled ligands (CP-55,940 or WIN-55,212-2) are incubated with the receptor membrane preparations to determine Kd and nonspecific binding. After the binding suspensions are incubated at 30° C. for 1 hr, the reaction is terminated by rapid filtration through microfiltration plates coated with 0.5% polyethylenimine (Unifilter GF/B filterplate, PerkinElmer) followed by 5 washes with ice cold TME buffer containing 0.5% BSA on a Packard Filtermate Harvester (PerkinElmer). The plates are then dried overnight and 30 μl MicroScint 0 scintillation cocktail are added to each well of the dried filter plates. Then the bound radioactivity is counted using a Perkin Elmer 96-well TopCounter. The Ki is calculated by using nonlinear regression analysis (Prism 5; GraphPad Software Inc., San Diego, Calif.), with the Kd values for [^3H]CP-55,940 determined from saturation binding experiments. This assay is used for determining binding affinity parameters (Ki) of ligand-receptor interactions for the CB receptor.
(§4) The affinities of the synthesized ligands were determined in radioligand binding studies at human CB1 and CB2 receptors using [3H](—)-cis-3-[2-hydroxy-4-(1,1 dimethylheptyl)phenyl]-trans-4-(3-hydroxypropyl) cyclohexanol (CP55,940) as a CB receptor radioligand. As a source for human CB1 and CB2 receptors, membrane preparations of Chinese hamster ovary (CHO) cells stably expressing the respective receptor subtype were utilized (50 μg of protein/vial). CB2 selective ligand SR144528 (CB2 inverse agonist) and CB1 ligand SR141716 (CB1 inverse agonist) were used as positive controls, respectively, along with the tested compounds in bioassays experiments. Only compounds with high CB2 receptor binding potency was chosen to carry out the CB1 binding assay. CB ligand competition binding assay was carried out as described previously in Gertsch, J., et al., Beta-caryophyllene is a dietary cannabinoid. Proc Natl Acad Sci USA 2008, 105 (26), 9099-104. Briefly, non-radioactive (or cold) ligands (synthesized derivatives and reference ligands) were diluted in a binding buffer (50 mM Tris-HCl (pH 7.4), 5 mM MgC12, 2.5 mM EGTA, and 0.1% (w/v) fatty acid free BSA), supplemented with 10% dimethyl sulfoxide and 0.4% methyl cellulose. Each assay plate well contained a total of 200 μL of reaction mixture composed of 5 μg of CB1 (or 2.5 μg CB2) membrane protein, labeled [3H]-CP-55,940 ligand at a final concentration of 2.5 nM, and the unlabeled ligand at its varying dilutions as stated above. Plates were incubated at 30° C. for 1 hour with gentle shaking.
(§5) The reaction was terminated by rapid filtration through Unifilter GF/B filter plates using a Unifilter Cell Harvester (PerkinElmer). After the plate was allowed to dry overnight, 30 μL MicroScint-0 cocktail (PerkinElmer) was added to each well, and the radioactivity was counted using a PerkinElmer TopCounter. […]

human CB1 receptors = target: T3, human CB1 receptors (Homo sapiens, UniProt P21554); assay: [3H]CP-55,940 radioligand competition binding assay, CB1; conditions: CHO cell membranes, [3H]CP-55,940 displacement
T3 construct: expressed in transfected cells
Experimental: as §2, §3, §4, §5

T3 sequence (P21554 whole entry): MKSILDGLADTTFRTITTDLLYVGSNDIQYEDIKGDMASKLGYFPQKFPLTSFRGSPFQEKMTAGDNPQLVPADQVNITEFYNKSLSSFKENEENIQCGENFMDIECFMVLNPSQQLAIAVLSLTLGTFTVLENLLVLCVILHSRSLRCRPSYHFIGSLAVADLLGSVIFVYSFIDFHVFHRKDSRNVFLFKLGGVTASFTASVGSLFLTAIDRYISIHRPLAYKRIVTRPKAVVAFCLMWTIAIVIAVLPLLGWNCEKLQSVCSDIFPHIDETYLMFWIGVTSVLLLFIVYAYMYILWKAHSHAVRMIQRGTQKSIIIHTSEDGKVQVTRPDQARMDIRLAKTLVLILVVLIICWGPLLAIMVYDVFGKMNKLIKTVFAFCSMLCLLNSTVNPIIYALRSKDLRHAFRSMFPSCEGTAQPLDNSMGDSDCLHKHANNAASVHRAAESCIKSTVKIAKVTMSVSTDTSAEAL
T2 sequence (P34972 whole entry): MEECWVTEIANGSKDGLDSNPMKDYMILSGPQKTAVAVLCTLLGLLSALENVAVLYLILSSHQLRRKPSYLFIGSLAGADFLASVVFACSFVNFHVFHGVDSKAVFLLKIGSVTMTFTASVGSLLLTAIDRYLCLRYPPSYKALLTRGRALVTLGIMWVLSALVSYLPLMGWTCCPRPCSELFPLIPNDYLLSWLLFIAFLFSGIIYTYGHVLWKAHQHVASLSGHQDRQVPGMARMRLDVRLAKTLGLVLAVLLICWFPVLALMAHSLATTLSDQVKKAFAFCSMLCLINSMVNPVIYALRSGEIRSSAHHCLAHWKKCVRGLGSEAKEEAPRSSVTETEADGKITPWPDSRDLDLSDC
T1 sequence (P34972 whole entry): as above

Compound | CB2 functional activity (LANCE cAMP signal) [1] | SI: selectivity index for CB2, calculated as Ki(CB1)/Ki(CB2) ratio (human CB2 receptors) | Ki (human CB2 receptors) [nM] | Ki (human CB1 receptors) [nM] | Ki (CB1) (human CB1 receptors)
CCCCCCC(C)(C)c1ccc([C@@H]2C[C@H](O)CC[C@H]2CCCO)c(O)c1 [CP55940, (—)-cis-3-[2-hydroxy-4-(1,1 dimethylheptyl)phenyl]-trans-4-(3-hydroxypropyl) cyclohexanol, reference compound] | inhibit cAMP production |  |  |  | 
SR-144,528 [reference compound] | inverse agonists |  |  |  | 
CCN(CC)c1ccc(CN(Cc2cc(OC)c(OC)c(OC)c2)S(=O)(=O)c2ccc(OC(F)(F)F)cc2)cc1 [Compound 13, N-(4-(diethylamino)benzyl)-4-(trifluoromethoxy)-N-(3,4,5-trimethoxybenzyl)benzenesulfonamide] |  | 2 | 990 | 1240 | 
CCN(CC)c1ccc(CN(Cc2cccnc2)S(=O)(=O)/C=C/c2ccccc2)cc1 [Compound 23, (E)-N-(4-(diethylamino)benzyl)-2-phenyl-N-(pyridin-3-ylmethyl)ethene-1-sulfonamide] |  | 6 | 899 | 5460 | 
CCN(CC)c1ccc(CN(Cc2cc(OC)c(OC)c(OC)c2)S(=O)(=O)c2ccccc2)cc1 [Compound 7, N-(4-(diethylamino)benzyl)-N-(3,4,5-trimethoxybenzyl)benzenesulfonamide] |  | 44 | 453 | > 20000 | no affinity
4-(((benzo[d][1,3]dioxol-5-ylmethyl)(quinoxalin-2-ylmethyl)amino)methyl)-N,N-diethylaniline [Compound 31] |  | 2 | 775 | 1270 | 
